“And” between values parts separate entries of the source, which are not always exact repeats. Equal values may be shown once. Read-outs that look alike come from different tables or passages of the source.
Key:
HS 578T = experiment: cells; conditions: Homo sapiens, 48 h
MDA-MB-231/ATCC = conditions: 10 μM, 48 h
MOLT-4 = experiment: cells; conditions: Homo sapiens, MOLT-4, 48 h
HCC-2998 [1] = system: HCC-2998
TK-10 = experiment: cells; conditions: Homo sapiens, TK-10, 48 h
CNS cancer = experiment: cells; conditions: Homo sapiens
NCI-H23 = experiment: cells; conditions: Homo sapiens, NCI-H23, 48 h
MCF7 = experiment: NCI-60 SRB screen; conditions: MCF7, 48 h
SN12C = experiment: cells; conditions: Homo sapiens, 48 h
BT-549 = conditions: 48 h
SK-OV-3 = experiment: cells; conditions: Homo sapiens, SK-OV-3, 48 h
M14 = experiment: NCI-60 SRB screen; conditions: Homo sapiens, M14, 48 h, read-out: LC50, M14, 48 h
HCC-2998 [2] = experiment: cells; conditions: Homo sapiens, HCC 2998, 48 h
Melanoma = experiment: cells; conditions: Homo sapiens
[3] = system: panel of 60 cancer cell lines; experiment: cells; conditions: Homo sapiens, read-out: MG_MID GI50
Prostate Cancer = experiment: cells; conditions: Homo sapiens, read-out: MG_MID GI50
[4] = system: caspase-3 in MDA-MB-231 cells; experiment: caspase-3 ELISA; type: cell-based, human; conditions: MDA-MB-231, 10 μM (highest concentration), 24 h
Procedure: To confirm the activity of the caspase pathway, an effector caspase-3 was assayed on MCF-7 and MDA-MB-231 cell lines after 24 h of treatment using the ELISA method. Novel 4-thiazolidinone derivatives were tested in concentrations of 1 and 5 μM for the MCF-7 cell line and 5 and 10 μM for the MDA-MB-231 cell line.
Using a SimpleStep ELISA kit (Abcam, Cambridge, UK), we determined the levels of cytochrome C and caspase-3 in cells’ lysates with 2b, 12b, and 14b (1 and 5 μM for the MCF-7 cell line and 5 and 10 μM for the MDA-MB-231) and doxorubicin in concentrations of 1 and 5 μM for both lines after 24 h incubation. Assays were performed according to the manufacturer’s protocols.

COLO 205 [5] = system: COLO 205
COLO 205 [6] = experiment: cells; conditions: Homo sapiens, COLO 205, 48 h
OVCAR-8 [7] = system: OVCAR-8
Ovarian cancer [8] = conditions: Ovarian cancer subpanel
U251 = experiment: NCI-60 SRB screen
NCI-H322M = experiment: NCI-60 SRB screen; conditions: 48 h
Ovarian cancer [9] = experiment: cells; conditions: Homo sapiens
HCT-15 = experiment: NCI-60 SRB screen; conditions: HCT-15, 48 h
MDA-MB-435 = experiment: cells; conditions: Homo sapiens, MDA-MB-435, 48 h
EKVX = experiment: NCI-60 SRB screen; conditions: 48 h
OVCAR-8 [10] = experiment: cells; conditions: Homo sapiens, OVCAR-8, 48 h

## O=C(O)CCCCCN1C(=O)/C(=C/C=C/c2ccc([N+](=O)[O-])o2)SC1=S [14b, 6-((Z)-5-((E)-3-(5-nitrofuran-2-yl)allylidene)-4-oxo-2-thioxothiazolidin-3-yl)hexanoic acid]
HS 578T; HS 578T
  GI50: 1440 nM
HS 578T; read-out: LC50
  CC50: > 100000 nM
MDA-MB-231/ATCC
  growth GP: -99.86%
MOLT-4
  GI50: 370 nM
HCC-2998 [1]; HCC-2998, 10 μM, 48 h
  growth GP: -95.72%
HCC-2998 [1]; HCC-2998, 48 h
  GI50: 1600 nM
  TGI: 3320 nM and 2980 nM
TK-10
  GI50: 1880 nM
TK-10; read-out: LC50, TK-10, 48 h
  CC50: 5840 nM
CNS cancer; read-out: MG_MID GI50
  GI50: 1140 nM
CNS cancer; read-out: MG_MID LC50
  CC50: 6090 nM
NCI-H23
  GI50: 1530 nM
NCI-H23; read-out: LC50, NCI-H23, 48 h
  CC50: 6290 nM
OVCAR-4; OVCAR-4, 10 μM, 48 h
  growth GP: -97.80%
OVCAR-4; OVCAR-4, 48 h
  GI50: 1490 nM
  TGI: 2690 nM and 2840 nM
MCF7; Homo sapiens
  GI50: 390 nM
MCF7
  GI50: 440 nM
  TGI: 1820 nM and 1990 nM
SN12C
  GI50: 360 nM
SN12C; read-out: LC50, SN12C, 48 h
  CC50: 3890 nM
BT-549; BT-549, 10 μM
  growth GP: -97.16%
BT-549; human
  CC50: 3030 nM
SK-OV-3
  GI50: 1710 nM
M14
  CC50: 5560 nM
HCC-2998 [2]
  GI50: 1780 nM
Melanoma; read-out: MG_MID GI50
  GI50: 760 nM
Melanoma; read-out: MG_MID LC50
  CC50: 4400 nM
[3]
  GI50: 1100 nM
UACC-257; UACC-257, 48 h
  GI50: 1400 nM
  TGI: 3160 nM and 3080 nM
UACC-257; human, 48 h
  CC50: 6810 nM
Prostate Cancer
  GI50: 1260 nM
[4]
  change of caspase-3 concentration: at least two times more
COLO 205 [5]; COLO 205, 48 h
  GI50: 970 nM
  TGI: 3080 nM and 2350 nM
COLO 205 [5]; human, 48 h
  CC50: 5610 nM
COLO 205 [6]
  GI50: 1560 nM
COLO 205 [6]; read-out: LC50, COLO 205, 48 h
  CC50: 6050 nM
OVCAR-8 [7]; OVCAR-8, 48 h
  GI50: 300 nM
OVCAR-8 [7]; human, 48 h
  CC50: 9710 nM
Ovarian cancer [8]
  MG_MID TGI: 2920 nM
U251; Homo sapiens, U-251, 48 h, U251, 48 h
  GI50: 570 nM
U251; Homo sapiens, U-251, 48 h, read-out: LC50, U251, 48 h
  CC50: 4860 nM
U251; U251, 48 h
  GI50: 340 nM
  TGI: 1920 nM and 1220 nM
NCI-H322M
  GI50: 1820 nM
  TGI: 3390 nM and 3550 nM
NCI-H322M; Homo sapiens
  GI50: 1680 nM
NCI-H322M; Homo sapiens, read-out: LC50, NCI-H322M, 48 h
  CC50: 6840 nM
Ovarian cancer [9]; read-out: MG_MID GI50
  GI50: 1110 nM
Ovarian cancer [9]; read-out: MG_MID LC50
  CC50: 15600 nM
HCT-15
  GI50: 160 nM
  TGI: 510 nM and 350 nM
HCT-15; Homo sapiens
  GI50: 190 nM
MDA-MB-435
  GI50: 420 nM
MDA-MB-435; read-out: LC50, MDA-MB-435, 48 h
  CC50: 4470 nM
EKVX
  GI50: 1680 nM
  TGI: 3480 nM and 3550 nM
EKVX; Homo sapiens
  GI50: 1740 nM
EKVX; Homo sapiens, read-out: LC50, EKVX, 48 h
  CC50: 6940 nM
OVCAR-8 [10]
  GI50: 570 nM
OVCAR-8 [10]; read-out: LC50, OVCAR-8, 48 h
  CC50: 6430 nM

— publication PMC12655351, “Synthesis and Anticancer Activity Evaluation of New 5-((5-Nitrofuran-2-yl)allylidene)-2-thioxo-4-thiazolidinones” (Pharmaceuticals, 2025)
